According to patent publication US6054437A, “Method for inducing death of neoplastic cells using piperazine derivatives” (Hitachi Chemical Research Center, Inc., priority 1997, dated 2000):
Structures can show the parent of a compound that is named as a salt.

How the values were obtained:
[1] = system: human cancer cells; assay: Cancer cell death assays against a number of human cancer cells; type: cell-based; settings: compounds alone; analogs at 25 μM (FIGS. 20-25)
Protocol: (§1) Cell death was measured quantitatively by the release of a marker intracellular enzyme, lactate dehydrogenase (LDH), from damaged or killed cells. LDH released into the extracellular fluid, was measured 24 hours after drug exposure to cancer cells and the enzyme activity was determined by the method of Decker et al. (J. Immunolog Methods 15:61-99, 1988).
As described in Experiment 1, three different assays were performed to measure anti-neoplastic activity of compounds.
The first assays performed measured the anti-neoplastic activity of NCO-700 analogs in cell death assays against a number of human cancer cells. The results of these experiments are shown in FIGS. 20-25, where a bar graph indicates the activity of a particular analog as measured by the % LDH released, with higher values of LDH released indicating greater anti-neoplastic activity (apoptosis). All analogs were tested at a concentration of 25 μM.

[2] = system: human breast cancer cells; assay: Subrenal capsule (SRC) tumor implant assay, breast cancer; type: in vivo, human tumor in BDF/1 mice
Protocol: FIG. 18 is a graph showing the relationship between the change in size of tumor and the dosage of NCO-700 in a sub-renal capsule assay of human breast cancer in BDF/1 mice.
(§2) A tumor implant model, where human tumors were implanted into the renal capsule of mice was performed. The tumors successfully escaped the immune system of the mouse and grew over a six-day period. The advantage of this assay is that the effect of chemotherapeutic agents can be tested in vivo. This model was developed at the University of California, Irvine by Stratton et al. (Gynecologic Oncology 17:185-188, 1984). Human tumors were implanted on day one and were exposed to drug on days two-six. The size of the implant was determined at time zero and at the end of five days of drug treatment, and the difference in size of the implanted tumor at day six, when compared to control animals not exposed to drug, is referred to herein as the delta mean.
(§3) The effect of NCO-700 on a breast cancer line was tested in the SRC assay. Three groups of animals (n=18 total) were tested with three concentrations of NCO-700 including, 10 mg/kg, 25 mg/kg and 50 mg/kg. […] These studies confirm the high potential of NCO-700 and related compounds as new anti-neoplastic agents.

[3] = system: PC-3 (prostate tumor cell line); assay: Apoptosis induced DNA fragmentation (agarose gel); type: cell-based, human; settings: PC-3, 50 μM, 48 hours
Protocol: PC-3, a prostate tumor cell line, was treated with 25 μM TOP-008, 50 μM NCO-700, or water for 48 hours. The DNA from each sample was purified by phenol extraction, and the fragmentation was resolved on an agarose gel.

[4] = system: KB-3 (sensitive cells); assay: Drug accumulation assay ([3H]-vinblastine), sensitive cells; type: cell-based, human; settings: KB-3, 20 μM NCO-700 + vinblastine
Protocol: 1. Drug Accumulation Assays
where the effect of NCO-700 on the uptake of radioactive (^3 H)-vinblastine, an anticancer drug, is measured in cultured cancer cells, that are both drug-resistant and drug-sensitive (Reference 3).
In the first two in vitro assays, the drug accumulation assay and the cell survival assay, a human pharyngeal carcinoma cell line (KB-V-1) which is highly resistant to anticancer drugs was used. This cell line was developed by Drs. Ira Pastan and Michael Gottesman of the National Cancer Institute, by step-wise selection in colchicine of drug-resistant cells. The control cancer cell line (KB-3), from which the resistant cell lines were derived, is sensitive to anticancer drugs. The resistant KB-V-1 cell line is approximately 275 times more resistant to vinblastine than the sensitive KB-3 line and has a greatly amplified mdr gene which generates the observed resistance.
Measurement of [^3 H]-vinblastine accumulation was performed by the methods developed in the laboratory of Drs. Gottesman and Pastan (Fojo et al., Cancer Res. 45:3002-3007, 1985). […] After an additional 30 min, the medium was removed, the plates were washed three times in ice-cold phosphate-buffered saline, the cells were detached with trypsin, and radioactivity determined by scintillation counting.

[5] = system: human colon cancer cells; assay: Subrenal capsule (SRC) tumor implant assay, colon cancer; type: in vivo, human tumor in BDF/1 mice
Protocol: FIG. 19 is a graph showing the relationship between the change in size of tumor and the dosage of NCO-700 in a sub-renal capsule assay of human colon cancer in BDF/1 mice.
as §2
as §3, with “colon” for “breast”, “two” for “three”, “including. 50” for “including, 10 mg/kg, 25”, “100” for “50”

[6] = Acute toxicity test, i.v. (LD50); settings: rat, in vivo, iv, rats
Source text: This non-toxicity of the compounds makes it possible to administer the compounds to patients daily for a long period of time without interruption, without significant side effects, until the cancer tumors are suppressed. The non-toxicity, the apoptotic effects and the reversal of multidrug resistance of the compounds will change the procedures of conventional chemotherapy completely.

[7] = system: HEP-129 (liver); assay: Cancer cell death assay (LDH release), liver line; type: cell-based, human; settings: compound alone, 24 hours
Protocol: FIG. 4 is a graph showing the relationship between LDH released and the concentration of NCO-700 in cancer cell death assays of human cancer cell lines MCF-7 (breast), HL-60 (leukemia), and HEP-129 (liver).
(§4) 1. Cancer Cell Death Assay
as §1
(§5) All cell lines used in the present study were obtained from the American Type Tissue Culture Laboratory and cultured according to their specifications. All were human cancer lines unless otherwise noted. The following cell lines and their tissue of origin used in our studies were:
(§6) The first assays performed measured the anti-neoplastic activity of NCO-700, alone, in cell death assays of a wide variety of human cancer cells. The results of these experiments are shown in FIGS. 1-6, where a dose-response curve of NCO-700 versus % LDH release is plotted, with higher values of LDH released indicating greater anti-neoplastic activity (apoptosis).

[8] = system: ovarian cancer cell lines SW-626 and AN-3-CA; assay: Cancer cell death assay (LDH release), ovarian lines; type: cell-based, human; settings: compound alone, 24 hours
Protocol: FIG. 1 is a graph showing the relationship between LDH released and the concentration of NCO-700 in cancer cell death assays of human ovarian cancer cell lines SW-626 and AN-3-CA.
as §4, §1, §5, §6

[9] = system: DU-145 (prostate); assay: Cancer cell death assay, NCO-700 versus Calpain inhibitor 1; type: cell-based, human
Protocol: as §1
Based on Experiment 1 above, the anti-cancer activity of NCO-700 and Calpain inhibitor 1 (N-acetyl-leu-leu-norleucinal, C20 H37 N3 O4) was tested in cancer cell death assays of human cancer cell line DU-145.

CCOC(=O)[C@@H]1O[C@H]1C(=O)N[C@@H](CC(C)C)C(=O)N1CCN(Cc2ccc(OC)c(OC)c2OC)CC1 [NCO-700, Bis[ethyl (2R,3R)-3-[(S)-3-methyl-1-[4-(2,3,4-trimethoxyphenylmethyl)piperazin-1-ylcarbonyl]butylcarbamoyl]oxirane-2-carboxylate] Sulfate]
anti-neoplastic activity, selectivity among human cancer cells [1]: highly effective as an anti-neoplastic agent versus selective tumors
effect on tumor size ([2]; 10 mg/kg): no effect
effect on tumor size ([2]; 25 mg/kg): significant anti-neoplastic effect
effect on tumor size ([2]; 50 mg/kg): significant anti-neoplastic effect
DNA fragmentation [3]: significant DNA fragmentation
vinblastine accumulation [4]: 3.17 ± 0.09 pmole vinblastine/mg protein
effect on tumor size ([5]; 50 mg/kg): slight effect
effect on tumor size ([5]; 100 mg/kg): significant anti-neoplastic effect
LD50 [6]: 317 mg/kg
anti-neoplastic activity (LDH release) [7]: did not respond
anti-neoplastic activity (LDH release) [8]: partly responsive
potency relative to Calpain inhibitor 1 ([9]; DU-145, 100 μM): ~10 fold
anti-cancer activity compared with Calpain inhibitor 1 ([9]; DU-145, FIG. 33): clearly superior to the other inhibitor
